Literature values as cited in patent publication US10871492B2, “Methods for labeling urine in a subject with fluorophores” (UPTRU INC., priority 2015, dated 2020).

Details: health care applications, especially fundus angiography

O=C([O-])c1ccccc1-c1c2ccc(=O)cc-2oc2cc([O-])ccc12.[Na+].[Na+] [Fluorescein sodium salt, fluorescein sodium salt]
dose generally considered safe: ≤ 25 mg/kg of body weight
